In the assay the target is MTOR (Homo sapiens, UniProt P42345). Description: Z'-LYTE / Adapta biochemical kinase assay, MTOR. From the text: The Z′-LYTE® biochemical assay employs a fluorescence-based, coupled-enzyme format and is based on the differential sensitivity of phosphorylated and non-phosphorylated peptides to proteolytic cleavage. The peptide substrate is labeled with two fluorophores—one at each end—that make up a FRET pair. In the primary reaction, the kinase transfers the gamma-phosphate of ATP to a single tyrosine, serine or threonine residue in a synthetic FRET-peptide. In the secondary reaction, a site-specific protease recognizes and cleaves non-phosphorylated FRET-peptides. Phosphorylation of FRET-peptides suppresses cleavage by the Development Reagent. […] A ratiometric method, which calculates the ratio (the Emission Ratio) of donor emission to acceptor emission after excitation of the donor fluorophore at 400 nm, is used to quantitate reaction progress.
A significant benefit of this ratiometric method for quantitating reaction progress is the elimination of well-to-well variations in FRET-peptide concentration and signal intensities. […]
Both cleaved and uncleaved FRET-peptides contribute to the fluorescence signals and therefore to the Emission Ratio. The extent of phosphorylation of the FRET-peptide can be calculated from the Emission Ratio. […]

By IC50 is commonly meant the point on the concentration scale where inhibition reaches its midpoint. A lower IC50 goes with higher potency.

On to `CS(=O)(=O)Nc1cc(-c2ccc3ncnc(Nc4cccc(Cl)c4F)c3c2)cnc1Cl` [Compound 6, N-[2-chloro-5-[4-(3-chloro-2-fluoro-anilino)quinazolin-6-yl]-3-pyridyl] methanesulfonamide], for which the IC50 was in the range of 2 to 20 nM.

These data come from US20230133958A1, “COMPOUNDS USEFUL IN MODULATING EGFR AND PI3K” (Mekanistic Therapeutics LLC, priority 2021, published 2023).
